Laboratory results from ChEMBL document CHEMBL4390649, “Fine-tuning the neuroprotective and blood-brain barrier permeability profile of multi-target agents designed to prevent progressive mitochondrial dysfunction” (Eur J Med Chem, 2019).
Activity calls are given as the source filed them. The rule behind the calls is not given here.

Tested on: SH-SY5Y
Assay: Neuroprotective activity against TBHP-induced oxidative damage in human SH-SY5Y cells assessed as increase in cell viability at 10 uM pretreated for 24 hrs followed by TBHP stimulation measured after 4 hrs by MTT assay relative to control
Format: functional, cell-based
Conditions: not given

Row | SMILES | Activity
1 | CS(=O)(=O)[O-].O=C(CCc1cc(O)c(O)c(O)c1)NCCCCCC[P+](c1ccccc1)(c1ccccc1)c1ccccc1 | inactive

Tested on: not listed separately
Assay: Cytotoxicity against human SH-SY5Y cells assessed as cell metabolic activity at 50 uM incubated for 24 hrs by MTT assay relative to control
Format: ADME, cell-based
Conditions: read-out: Activity

Row | SMILES | viability at 24 h, 50 µM [%]
2 | CS(=O)(=O)[O-].O=C(CCc1cc(O)c(O)c(O)c1)NCCCCCC[P+](c1ccccc1)(c1ccccc1)c1ccccc1 | 91.7
3 | Cc1c(C)c2c(c(C)c1O)CCC(C)(C(=O)O)O2 (stereo unspecified) [TROLOX] | 3.62

Tested on: not listed separately
Assay: Cytotoxicity against human HepG2 cells assessed as cell metabolic activity at 10 uM incubated for 48 hrs by resazurin assay relative to control
Format: ADME, cell-based
Conditions: read-out: Activity

Row | SMILES | viability at 48 h, 10 µM [%]
4 | CS(=O)(=O)[O-].O=C(CCc1cc(O)c(O)c(O)c1)NCCCCCC[P+](c1ccccc1)(c1ccccc1)c1ccccc1 | 113
5 | Cc1c(C)c2c(c(C)c1O)CCC(C)(C(=O)O)O2 (stereo unspecified) [TROLOX] | 5.99

Tested on: not listed separately
Assay: Antioxidant activity assessed as DPPH radical scavenging activity measured after 45 mins by UV-Visible spectrophotometric based assay
Format: functional
Conditions: not given

Row | SMILES | IC50 [µM]
6 | O=C(O)Cc1cc(O)c(O)c(O)c1 | 6.8
7 | O=C(O)CCc1cc(O)c(O)c(O)c1 | 11.1
8 | O=C(O)/C=C/c1cc(O)c(O)c(O)c1 | 10.3
9 | O=C(O)CCc1ccc(O)c(O)c1 [DIHYDROCAFFEIC ACID] | 24.8
10 | O=C(O)c1cc(O)c(O)c(O)c1 [GALLIC ACID] | 9.9
11 | CS(=O)(=O)[O-].O=C(CCc1cc(O)c(O)c(O)c1)NCCCCCC[P+](c1ccccc1)(c1ccccc1)c1ccccc1 | 20.2
12 | O=C(O)Cc1ccc(O)c(O)c1 [3,4-DIHYDROXYPHENYLACETIC ACID] | 26.2
13 | O=C(O)c1ccc(O)c(O)c1 [PROTOCATECHUIC ACID] | 42
14 | O=C(O)/C=C/c1ccc(O)c(O)c1 [CAFFEIC ACID] | 28.5
15 | Cc1c(C)c2c(c(C)c1O)CCC(C)(C(=O)O)O2 (stereo unspecified) [TROLOX] | 31.1

Tested on: not listed separately
Assay: Antioxidant activity assessed as ABTS radical scavenging activity measured after 15 mins by UV-Visible spectrophotometric based assay
Format: functional
Conditions: not given

Row | SMILES | IC50 [µM]
16 | O=C(O)Cc1cc(O)c(O)c(O)c1 | 4.7
17 | O=C(O)CCc1cc(O)c(O)c(O)c1 | 9.2
18 | O=C(O)/C=C/c1cc(O)c(O)c(O)c1 | 4.6
19 | O=C(O)CCc1ccc(O)c(O)c1 [DIHYDROCAFFEIC ACID] | 24
20 | O=C(O)c1cc(O)c(O)c(O)c1 [GALLIC ACID] | 7.8
21 | CS(=O)(=O)[O-].O=C(CCc1cc(O)c(O)c(O)c1)NCCCCCC[P+](c1ccccc1)(c1ccccc1)c1ccccc1 | 10.9
22 | O=C(O)Cc1ccc(O)c(O)c1 [3,4-DIHYDROXYPHENYLACETIC ACID] | 18
23 | O=C(O)c1ccc(O)c(O)c1 [PROTOCATECHUIC ACID] | 26.1
24 | O=C(O)/C=C/c1ccc(O)c(O)c1 [CAFFEIC ACID] | 20.5
25 | Cc1c(C)c2c(c(C)c1O)CCC(C)(C(=O)O)O2 (stereo unspecified) [TROLOX] | 24.5

Tested on: not listed separately
Assay: Electrochemical behavior of the compound assessed as redox potential corrected toward saturated Ag/AgCl reference electrode by cyclic voltammetry
Conditions: not given

Row | SMILES | Activity [mV]
26 | O=C(O)Cc1cc(O)c(O)c(O)c1 | 135
27 | O=C(O)CCc1cc(O)c(O)c(O)c1 | 120
28 | O=C(O)/C=C/c1cc(O)c(O)c(O)c1 | 56
29 | O=C(O)CCc1ccc(O)c(O)c1 [DIHYDROCAFFEIC ACID] | 112
30 | O=C(O)c1cc(O)c(O)c(O)c1 [GALLIC ACID] | 120
31 | CS(=O)(=O)[O-].O=C(CCc1cc(O)c(O)c(O)c1)NCCCCCC[P+](c1ccccc1)(c1ccccc1)c1ccccc1 | 11
32 | O=C(O)Cc1ccc(O)c(O)c1 [3,4-DIHYDROXYPHENYLACETIC ACID] | 122
33 | O=C(O)c1ccc(O)c(O)c1 [PROTOCATECHUIC ACID] | 234
34 | O=C(O)/C=C/c1ccc(O)c(O)c1 [CAFFEIC ACID] | 168
35 | Cc1c(C)c2c(c(C)c1O)CCC(C)(C(=O)O)O2 (stereo unspecified) [TROLOX] | 113

Tested on: not listed separately
Assay: Electrochemical behavior of the compound assessed as redox potential corrected toward saturated Ag/AgCl reference electrode by differential pulse voltammetry
Conditions: not given

Row | SMILES | Activity [mV]
36 | O=C(O)Cc1cc(O)c(O)c(O)c1 | 550
37 | O=C(O)CCc1cc(O)c(O)c(O)c1 | 543
38 | O=C(O)/C=C/c1cc(O)c(O)c(O)c1 | 589
39 | O=C(O)CCc1ccc(O)c(O)c1 [DIHYDROCAFFEIC ACID] | 216
40 | O=C(O)c1cc(O)c(O)c(O)c1 [GALLIC ACID] | 559
41 | CS(=O)(=O)[O-].O=C(CCc1cc(O)c(O)c(O)c1)NCCCCCC[P+](c1ccccc1)(c1ccccc1)c1ccccc1 | 547
42 | O=C(O)Cc1ccc(O)c(O)c1 [3,4-DIHYDROXYPHENYLACETIC ACID] | 270
43 | O=C(O)c1ccc(O)c(O)c1 [PROTOCATECHUIC ACID] | 234
44 | O=C(O)/C=C/c1ccc(O)c(O)c1 [CAFFEIC ACID] | 168
45 | Cc1c(C)c2c(c(C)c1O)CCC(C)(C(=O)O)O2 (stereo unspecified) [TROLOX] | 113

Tested on: not listed separately
Assay: Metal chelating activity assessed as compound-Fe2+ complex formation at 100 uM incubated for 10 mins by ferrozine spectrophotometric assay
Conditions: not given

Row | SMILES | Activity [%]
46 | CS(=O)(=O)[O-].O=C(CCc1cc(O)c(O)c(O)c1)NCCCCCC[P+](c1ccccc1)(c1ccccc1)c1ccccc1 | > 80

Tested on: not listed separately
Assay: Cytotoxicity against human SH-SY5Y cells assessed as cell metabolic activity at 10 uM incubated for 24 hrs by MTT assay relative to control
Format: ADME, cell-based
Conditions: read-out: Activity

Row | SMILES | viability at 24 h, 10 µM [%]
47 | CS(=O)(=O)[O-].O=C(CCc1cc(O)c(O)c(O)c1)NCCCCCC[P+](c1ccccc1)(c1ccccc1)c1ccccc1 | 95.9
48 | Cc1c(C)c2c(c(C)c1O)CCC(C)(C(=O)O)O2 (stereo unspecified) [TROLOX] | 3.62

Tested on: not listed separately
Assay: Cytotoxicity against human HepG2 cells assessed as cell metabolic activity at 50 uM incubated for 48 hrs by resazurin assay relative to control
Format: ADME, cell-based
Conditions: read-out: Activity

Row | SMILES | viability at 48 h, 50 µM [%]
49 | CS(=O)(=O)[O-].O=C(CCc1cc(O)c(O)c(O)c1)NCCCCCC[P+](c1ccccc1)(c1ccccc1)c1ccccc1 | 117
50 | Cc1c(C)c2c(c(C)c1O)CCC(C)(C(=O)O)O2 (stereo unspecified) [TROLOX] | 5.99

Tested on: SH-SY5Y
Assay: Induction of ROS generation in human SH-SY5Y cells at 50 uM incubated for 24 hrs by DCFH-DA probe based fluorescence assay relative to control
Format: functional
Conditions: not given

Row | SMILES | Activity
51 | CS(=O)(=O)[O-].O=C(CCc1cc(O)c(O)c(O)c1)NCCCCCC[P+](c1ccccc1)(c1ccccc1)c1ccccc1 | Active

Tested on: SH-SY5Y
Assay: Neuroprotective activity against 6-OHDA-induced toxicity in human SH-SY5Y cells assessed as reduction in cell damage at 10 to 50 uM pretreated for 24 hrs followed by 6-OHDA challenge and measured after 24 hrs by MTT assay relative to control
Format: functional
Conditions: not given

Row | SMILES | Activity
52 | CS(=O)(=O)[O-].O=C(CCc1cc(O)c(O)c(O)c1)NCCCCCC[P+](c1ccccc1)(c1ccccc1)c1ccccc1 | Active

Tested on: SH-SY5Y
Assay: Neuroprotective activity against TBHP-induced oxidative damage in human SH-SY5Y cells assessed as increase in cell viability at 50 uM pretreated for 24 hrs followed by TBHP stimulation measured after 4 hrs by MTT assay relative to control
Format: functional
Conditions: not given

Row | SMILES | Activity
53 | CS(=O)(=O)[O-].O=C(CCc1cc(O)c(O)c(O)c1)NCCCCCC[P+](c1ccccc1)(c1ccccc1)c1ccccc1 | inactive

Tested on: not listed separately
Assay: Cytotoxicity against human CMEC/D3 cells assessed as reduction in cell viability at 50 to 100 uM incubated for 4 hrs by MTT assay relative to control
Format: cell-based
Conditions: hcmec/d3, 4 h

Row | SMILES | Activity
54 | CS(=O)(=O)[O-].O=C(CCc1cc(O)c(O)c(O)c1)NCCCCCC[P+](c1ccccc1)(c1ccccc1)c1ccccc1 | Non-Toxic

Tested on: not listed separately
Assay: Apparent permeability across apical to basolateral side in human CMEC/D3 cells at 100 uM incubated up to 180 mins by UV-VIS spectroscopic method
Format: ADME, cell-based
Conditions: hcmec/d3, 3 h

Row | SMILES | permeability [%]
55 | CS(=O)(=O)[O-].O=C(CCc1cc(O)c(O)c(O)c1)NCCCCCC[P+](c1ccccc1)(c1ccccc1)c1ccccc1 | 23.7

Tested on: not listed separately
Assay: Apparent permeability across apical to basolateral side in human CMEC/D3 cells at 100 uM incubated by UV-VIS spectroscopic method
Format: ADME, cell-based
Conditions: hcmec/d3, 100 µM, TDE = time-dependent effect

Row | SMILES | permeability
56 | CS(=O)(=O)[O-].O=C(CCc1cc(O)c(O)c(O)c1)NCCCCCC[P+](c1ccccc1)(c1ccccc1)c1ccccc1 | Tde
